According to patent publication US8859571B2, “Quinazoline compounds” (GlaxoSmithKline LLC, priority 2009, dated 2014):
Values joined by “and” are separate entries in the source; they are usually repeats but may differ in a detail not shown here. Identical values can stand only once. Counter-ions that a name gives are not always drawn.

Biological target: T1, Full length human TNNI3K (hTNNI3K) (Homo sapiens, UniProt Q59H18)
T1 construct: His-MBP-TEV-Full length human TNNI3K (hTNNI3K); His (N); MBP (N); TEV cleavage site (N); made in house; host or cells: baculovirus system (printed 'Baculokinase system')
T1 sequence (Q59H18 1-835): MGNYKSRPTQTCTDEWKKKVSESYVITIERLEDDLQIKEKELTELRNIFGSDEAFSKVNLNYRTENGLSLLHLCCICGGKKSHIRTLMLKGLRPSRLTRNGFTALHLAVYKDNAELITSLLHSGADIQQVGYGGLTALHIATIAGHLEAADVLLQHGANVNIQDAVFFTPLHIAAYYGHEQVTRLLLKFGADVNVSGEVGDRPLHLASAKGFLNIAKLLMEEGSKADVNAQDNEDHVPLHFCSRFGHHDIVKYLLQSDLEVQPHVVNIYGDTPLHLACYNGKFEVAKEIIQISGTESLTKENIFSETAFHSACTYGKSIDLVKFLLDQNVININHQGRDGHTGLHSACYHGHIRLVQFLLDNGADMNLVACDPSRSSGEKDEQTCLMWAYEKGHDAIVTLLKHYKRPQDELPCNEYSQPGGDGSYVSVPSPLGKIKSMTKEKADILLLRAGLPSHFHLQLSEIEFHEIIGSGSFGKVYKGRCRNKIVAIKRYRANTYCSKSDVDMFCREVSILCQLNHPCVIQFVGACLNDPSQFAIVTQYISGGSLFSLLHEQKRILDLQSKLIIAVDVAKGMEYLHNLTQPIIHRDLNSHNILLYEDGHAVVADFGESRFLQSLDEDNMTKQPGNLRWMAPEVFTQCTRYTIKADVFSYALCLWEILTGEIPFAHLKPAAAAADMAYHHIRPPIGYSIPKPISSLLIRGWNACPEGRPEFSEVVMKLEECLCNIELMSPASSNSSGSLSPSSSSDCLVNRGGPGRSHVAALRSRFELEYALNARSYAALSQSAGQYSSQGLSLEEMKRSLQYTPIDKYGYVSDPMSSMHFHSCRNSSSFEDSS
Assay: Fluorescent polarization assay of compound inhibition on hTNNI3K ATP binding (Biological Assay Method I)
Details: displacement of fluorescent ligand from hTNNI3K ATP binding pocket; mean of a minimum of 2 experiments; read-out: pXC50 (the source's name) (converted)
Description: Materials: His-MBP-TEV-Full length human TNNI3K (hTNNI3K) was expressed in Baculokinase system and purified from amylase affinity column followed by Superdex200. The fluorescent ligand 5-({[2-({[3-({4-[(5-hydroxy-2-methylphenyl)amino]-2-pyrimidinyl}amino)phenyl]carbonyl}amino)ethyl]amino}carbonyl)-2-(6-hydroxy-3-oxo-3H-xanthen-9-yl)benzoic acid was used. The preparation of this fluorescent ligand is disclosed in U.S. Provisional Patent Application No. 61/237,815 filed Aug. 28, 2009, the disclosure of which is incorporated by reference herein. The other buffer components, including MgCl2 (Catalog Number M1028), Bis-Tris (Catalog Number B7535), DTT (Catalog Number D9779) and Chaps (Catalog Number C3023) were purchased from Sigma-Aldrich.
Biological Assay Method I:
A fluorescent polarization assay was used to determine does response of compound inhibition on hTNNI3K ATP binding.
Solution 1: Ten (10) mL of a 5 nM 5-({[2-({[3-({4-[(5-hydroxy-2-methylphenyl)amino]-2-pyrimidinyl}amino)phenyl]carbonyl}amino)ethyl]amino}carbonyl)-2-(6-hydroxy-3-oxo-3H-xanthen-9-yl)benzoic acid solution (Solution 1) was prepared by mixing 5 μL of 1M DTT and 80 μL of 10% (w/v) Chaps and 5 μL of a 10 μM 5-({[2-({[3-({4-[(5-hydroxy-2-methylphenyl)amino]-2-pyrimidinyl}amino)phenyl]carbonyl}amino) ethyl]amino}carbonyl)-2-(6-hydroxy-3-oxo-3H-xanthen-9-yl)benzoic acid stock solution into 9910 μL buffer (20 mM Tris, 15 mM MgCl2, pH 7.5). (Stock solution: 10 μM solution of 5-({[2-({[3-({4-[(5-hydroxy-2-methylphenyl)amino]-2-pyrimidinyl}amino)phenyl]carbonyl}amino)ethyl]amino}carbonyl)-2-(6-hydroxy-3-oxo-3H-xanthen-9-yl)benzoic acid in 100% DMSO)
Solution 2 was formed by mixing 53.8 μL of 2.6 μM hTNNI3K with a 6946.2 μL aliquot of Solution 1 (the above 5-({[2-({[3-({4-[(5-hydroxy-2-methylphenyl)amino]-2-pyrimidinyl}amino)phenyl]carbonyl}amino)ethyl]amino}carbonyl)-2-(6-hydroxy-3-oxo-3H-xanthen-9-yl)benzoic acid solution) to make up a 7 mL of mixture of hTNNI3K and 5-({[2-({[3-({4-[(5-hydroxy-2-methylphenyl)amino]-2-pyrimidinyl}amino)phenyl]carbonyl}amino)ethyl]amino}carbonyl)-2-(6-hydroxy-3-oxo-3H-xanthen-9-yl)benzoic acid (Solution 2).
Fifty (50) nL of inhibitors in DMSO (or DMSO controls) were stamped into a 384-well low volume Greiner black plate, followed by addition of 5 μL of Solution 1 to column 18 and 5 μL Solution 2 to columns 1-17 and 19-24 of the plate. The plate was then spun at 500 rpm for 30 seconds and incubated at room temperature for 60 minutes. After that, the fluorescent polarization was measured on Analyst (ex/em: 485/530 nm, Dichroic: 505). For dose response experiments, normalized data were fit by ABASE/XC50 and pXC50=(log((b−y)/(y−a)))/d−log(x), where x is the compound concentration and y is the % activity at specified compound concentration, a is the minimum % activity, b is the maximum % activity, and d is the Hill slope.
The pXC50s are averaged to determine a mean value, for a minimum of 2 experiments.

Row | SMILES | IC50
1 | CNS(=O)(=O)c1ccc(N(C)C)c(Nc2ncnc3cc(OC)c(OC)cc23)c1 [Example 1, 3-{[6,7-bis(methyloxy)-4-quinazolinyl]amino}-4-(dimethylamino)-N-methylbenzenesulfonamide hydrochloride] | 10 to 100 nM
2 | CNS(=O)(=O)c1ccc(N2CCOCC2)c(Nc2ncnc3cc(OC)c(OC)cc23)c1 [Example 3, 3-{[6,7-bis(methyloxy)-4-quinazolinyl]amino}-N-methyl-4-(4-morpholinyl)benzenesulfonamide trifluoroacetate] | 10 to 100 nM and ~79.4 nM
3 | CCN(C)c1ccc(S(=O)(=O)NC)cc1Nc1ncnc2cc(OC)c(OC)cc12 [Example 4, 3-{[6,7-bis(methyloxy)-4-quinazolinyl]amino}-4-[ethyl(methyl)amino]-N-methylbenzenesulfonamide] | 10 to 100 nM
4 | CNS(=O)(=O)c1ccc(OC(C)C)c(Nc2ncnc3cc(OC)c(OC)cc23)c1 [Example 5, 3-{[6,7-bis(methyloxy)-4-quinazolinyl]amino}-N-methyl-4-[(1-methylethyl)oxy]benzenesulfonamide] | 10 to 100 nM
5 | CNS(=O)(=O)c1ccc(N(C)C)c(Nc2ncnc3ccc(OC)cc23)c1 [Example 10, 4-(dimethylamino)-N-methyl-3-{[6-(methyloxy)-4-quinazolinyl]amino}benzene sulfonamide trifluoroacetate] | 10 to 100 nM
6 | CNS(=O)(=O)c1ccc(OCC(F)(F)F)c(Nc2ncnc3cc(OC)c(OC)cc23)c1 [Example 11, 3-{[6,7-bis(methyloxy)-4-quinazolinyl]amino}-N-methyl-4-[(2,2,2-trifluoroethyl)oxy]benzenesulfonamide hydrochloride] | 10 to 100 nM
7 | CNS(=O)(=O)c1ccc(N2CCC(F)(F)CC2)c(Nc2ncnc3cc(OC)c(OC)cc23)c1 [Example 14, 3-{[6,7-bis(methyloxy)-4-quinazolinyl]amino}-4-(4,4-difluoro-1-piperidinyl)-N-methylbenzenesulfonamide trifluoroacetate] | 10 to 100 nM
8 | CNS(=O)(=O)c1ccc(N(C)C)c(Nc2ncnc3cc(OCCCCl)ccc23)c1 [Example 16, 3-({7-[(3-chloropropyl)oxy]-4-quinazolinyl}amino)-4-(dimethylamino)-N-methylbenzenesulfonamide] | 10 to 100 nM
9 | CNS(=O)(=O)c1ccc(N(C)C)c(Nc2ncnc3cc(OCCOC)c(OCCOC)cc23)c1 [Example 17, 3-[(6,7-bis{[2-(methyloxy)ethyl]oxy}-4-quinazolinyl)amino]-4-(dimethylamino)-N-methylbenzenesulfonamide trifluoroacetate] | 10 to 100 nM
10 | CNS(=O)(=O)c1ccc(OC)c(Nc2ncnc3cc(OCCOC)c(OCCOC)cc23)c1 [Example 18, 3-[(6,7-bis{[2-(methyloxy)ethyl]oxy}-4-quinazolinyl)amino]-N-methyl-4-(methyloxy) benzenesulfonamide hydrochloride] | 10 to 100 nM
11 | CNS(=O)(=O)c1ccc(OCC(F)(F)F)c(Nc2ncnc3cc(OCCOC)c(OCCOC)cc23)c1 [Example 19, 3-[(6,7-bis{[2-(methyloxy)ethyl]oxy}-4-quinazolinyl)amino]-N-methyl-4-[(2,2,2-trifluoroethyl)oxy] benzenesulfonamide] | 10 to 100 nM
12 | CNS(=O)(=O)c1ccc(SC)c(Nc2ncnc3cc(OCCOC)c(OCCOC)cc23)c1 [Example 20, 3-[(6,7-bis{[2-(methyloxy)ethyl]oxy}-4-quinazolinyl)amino]-N-methyl-4-(methylthio) benzenesulfonamide] | 10 to 100 nM
13 | CNS(=O)(=O)c1ccc(N2CCC[C@@H]2C(F)(F)F)c(Nc2ncnc3cc(OC)c(OC)cc23)c1 [Example 21, 3-{[6,7-bis(methyloxy)-4-quinazolinyl]amino}-N-methyl-4-[(2R)-2-(trifluoromethyl)-1-pyrrolidinyl] benzenesulfonamide trifluoroacetate] | 1 to 10 nM
14 | CNS(=O)(=O)c1ccc(N2CCC[C@@H]2C(F)(F)F)c(Nc2ncnc3ccc(Cl)cc23)c1 [Example 22, 3-[(6-chloro-4-quinazolinyl)amino]-N-methyl-4-[(2R)-2-(trifluoromethyl)-1-pyrrolidinyl] benzenesulfonamide trifluoroacetate] | 10 to 100 nM
15 | CNS(=O)(=O)c1ccc(N2CCCCC2)c(Nc2ncnc3cc(OC)c(OC)cc23)c1 [Example 25, 3-{[6,7-bis(methyloxy)-4-quinazolinyl]amino}-N-methyl-4-(1-piperidinyl) benzenesulfonamide trifluoroacetate] | 1 to 10 nM

Now from value to molecule:

Row | IC50 | SMILES
16 | 1 to 10 nM | CNS(=O)(=O)c1ccc(OC(C)C(F)(F)F)c(Nc2ncnc3cc(OC)cc(OC)c23)c1 (single isomer, unassigned) [Example 82, 3-{[5,7-bis(methyloxy)-4-quinazolinyl]amino}-N-methyl-4-[(2,2,2-trifluoro-1-methylethyl)oxy]benzenesulfonamide hydrochloride]
17 | 10 to 100 nM | CNS(=O)(=O)c1ccc(N2CCCCC2)c(Nc2ncnc3ccc(Cl)cc23)c1 [Example 26, 3-[(6-chloro-4-quinazolinyl)amino]-N-methyl-4-(1-piperidinyl) benzenesulfonamide trifluoroacetate]
18 | 1 to 10 nM | CNS(=O)(=O)c1ccc(N2C(C)CCC2C)c(Nc2ncnc3cc(OC)c(OC)cc23)c1 (stereo not shown) [Example 27, 3-{[6,7-bis(methyloxy)-4-quinazolinyl]amino}-4-(2,5-dimethyl-1-pyrrolidinyl)-N-methylbenzenesulfonamide trifluoroacetate]
19 | 10 to 100 nM | CNS(=O)(=O)c1ccc(N2C(C)CCC2C)c(Nc2ncnc3ccc(Cl)cc23)c1 (stereo not shown) [Example 28, 3-[(6-chloro-4-quinazolinyl)amino]-4-(2,5-dimethyl-1-pyrrolidinyl)-N-methylbenzenesulfonamide trifluoroacetate]
20 | 10 to 100 nM | CNS(=O)(=O)c1cccc(Nc2ncnc3cc(OC)cc(OC)c23)c1 [Example 30, 3-{[5,7-bis(methyloxy)-4-quinazolinyl]amino}-N-methylbenzenesulfonamide hydrochloride]
21 | 1 to 10 nM | CNS(=O)(=O)c1ccc(OCC(F)(F)F)c(Nc2ncnc3cc(OC)cc(OC)c23)c1 [Example 31, 3-{[5,7-bis(methyloxy)-4-quinazolinyl]amino}-N-methyl-4-[(2,2,2-trifluoroethyl)oxy]benzenesulfonamide hydrochloride]
22 | 1 to 10 nM | CNS(=O)(=O)c1ccc(N(C)C)c(Nc2ncnc3cc(OC)cc(OC)c23)c1 [Example 32, 3-{[5,7-bis(methyloxy)-4-quinazolinyl]amino}-4-(dimethylamino)-N-methylbenzenesulfonamide]
